“And” between values parts separate entries of the source, which are not always exact repeats. Equal entries are not always repeated.
O=C(C(F)(F)C(F)(F)F)C(F)(C(F)(F)F)C(F)(F)F [dodecafluoro-2-methylpentan-3-one]
Settings	thermal conductivity
329.25 K, 73 kPa, Gas, hot wire	0.0137 W/m/K
329.26 K, 72 kPa, Gas, hot wire	0.01377 W/m/K and 0.01374 W/m/K
329.31 K, 120 kPa, Gas, hot wire	0.01393 W/m/K
329.32 K, 120 kPa, Gas, hot wire	0.01375 W/m/K
329.34 K, 27 kPa, Gas, hot wire	0.01343 W/m/K
329.35 K, 27 kPa, Gas, hot wire	0.01345 W/m/K
329.36 K, 26 kPa, Gas, hot wire	0.01404 W/m/K
329.37 K, 26 kPa, Gas, hot wire	0.01398 W/m/K
329.38 K, 120 kPa, Gas, hot wire	0.01375 W/m/K
329.39 K, 105 kPa, Gas, hot wire	0.01386 W/m/K
329.39 K, 120 kPa, Gas, hot wire	0.01376 W/m/K
329.4 K, 105 kPa, Gas, hot wire	0.01386 W/m/K
329.42 K, 73 kPa, Gas, hot wire	0.01371 W/m/K and 0.01373 W/m/K
329.43 K, 72 kPa, Gas, hot wire	0.01372 W/m/K and 0.01375 W/m/K
329.43 K, 67798 kPa, Liquid, transient hot wire	0.07589 W/m/K
329.43 K, 67830 kPa, Liquid, transient hot wire	0.07595 W/m/K
329.47 K, 120 kPa, Gas, hot wire	0.01394 W/m/K
329.48 K, 120 kPa, Gas, hot wire	0.01386 W/m/K
329.48 K, 57461 kPa, Liquid, transient hot wire	0.0733 W/m/K
329.49 K, 57474 kPa, Liquid, transient hot wire	0.07325 W/m/K
329.5 K, 26 kPa, Gas, hot wire	0.01349 W/m/K
329.51 K, 27 kPa, Gas, hot wire	0.01348 W/m/K
329.52 K, 26 kPa, Gas, hot wire	0.01408 W/m/K
329.53 K, 26 kPa, Gas, hot wire	0.01404 W/m/K
329.56 K, 46607 kPa, Liquid, transient hot wire	0.07024 W/m/K
329.56 K, 46614 kPa, Liquid, transient hot wire	0.07022 W/m/K
329.57 K, 105 kPa, Gas, hot wire	0.01395 W/m/K and 0.01394 W/m/K
329.57 K, 120 kPa, Gas, hot wire	0.01381 W/m/K
329.58 K, 120 kPa, Gas, hot wire	0.01371 W/m/K
329.6 K, 72 kPa, Gas, hot wire	0.01381 W/m/K
329.6 K, 73 kPa, Gas, hot wire	0.01369 W/m/K and 0.01372 W/m/K
329.6 K, 67772 kPa, Liquid, transient hot wire	0.07593 W/m/K
329.6 K, 67790 kPa, Liquid, transient hot wire	0.07593 W/m/K
329.61 K, 72 kPa, Gas, hot wire	0.01376 W/m/K
329.63 K, 36730 kPa, Liquid, transient hot wire	0.06726 W/m/K
329.63 K, 36735 kPa, Liquid, transient hot wire	0.06721 W/m/K
329.65 K, 120 kPa, Gas, hot wire	0.01392 W/m/K
329.66 K, 119 kPa, Gas, hot wire	0.0139 W/m/K
329.66 K, 57448 kPa, Liquid, transient hot wire	0.07322 W/m/K
329.68 K, 27 kPa, Gas, hot wire	0.01357 W/m/K
329.68 K, 27945 kPa, Liquid, transient hot wire	0.06427 W/m/K
329.68 K, 27946 kPa, Liquid, transient hot wire	0.0643 W/m/K
329.68 K, 57441 kPa, Liquid, transient hot wire	0.07323 W/m/K
329.69 K, 27 kPa, Gas, hot wire	0.0135 W/m/K
329.7 K, 26 kPa, Gas, hot wire	0.01403 W/m/K and 0.01401 W/m/K
329.74 K, 20516 kPa, Liquid, transient hot wire	0.0619 W/m/K
329.74 K, 20518 kPa, Liquid, transient hot wire	0.0616 W/m/K
329.74 K, 46598 kPa, Liquid, transient hot wire	0.07033 W/m/K
329.74 K, 46602 kPa, Liquid, transient hot wire	0.07022 W/m/K
329.75 K, 104 kPa, Gas, hot wire	0.01402 W/m/K
329.76 K, 104 kPa, Gas, hot wire	0.01399 W/m/K
329.77 K, 120 kPa, Gas, hot wire	0.01378 W/m/K
329.79 K, 73 kPa, Gas, hot wire	0.01373 W/m/K
329.79 K, 120 kPa, Gas, hot wire	0.01373 W/m/K
329.8 K, 14125 kPa, Liquid, transient hot wire	0.05898 W/m/K
329.8 K, 14126 kPa, Liquid, transient hot wire	0.05901 W/m/K
329.8 K, 67755 kPa, Liquid, transient hot wire	0.07593 W/m/K
329.81 K, 67741 kPa, Liquid, transient hot wire	0.07589 W/m/K
329.82 K, 36726 kPa, Liquid, transient hot wire	0.06718 W/m/K
329.82 K, 36730 kPa, Liquid, transient hot wire	0.0673 W/m/K
329.83 K, 118 kPa, Gas, hot wire	0.01407 W/m/K
329.84 K, 118 kPa, Gas, hot wire	0.01403 W/m/K
329.85 K, 73 kPa, Gas, hot wire	0.01336 W/m/K
329.86 K, 72 kPa, Gas, hot wire	0.01334 W/m/K
329.86 K, 8619 kPa, Liquid, transient hot wire	0.05649 W/m/K
329.86 K, 57414 kPa, Liquid, transient hot wire	0.07321 W/m/K
329.86 K, 57423 kPa, Liquid, transient hot wire	0.07327 W/m/K
329.87 K, 27 kPa, Gas, hot wire	0.01359 W/m/K and 0.01357 W/m/K
329.87 K, 8621 kPa, Liquid, transient hot wire	0.05651 W/m/K
329.87 K, 27941 kPa, Liquid, transient hot wire	0.06427 W/m/K
329.88 K, 27942 kPa, Liquid, transient hot wire	0.06429 W/m/K
329.91 K, 4467 kPa, Liquid, transient hot wire	0.05452 W/m/K
329.91 K, 4470 kPa, Liquid, transient hot wire	0.05445 W/m/K
329.94 K, 26 kPa, Gas, hot wire	0.01354 W/m/K and 0.01352 W/m/K
329.94 K, 20524 kPa, Liquid, transient hot wire	0.06153 W/m/K
329.94 K, 46588 kPa, Liquid, transient hot wire	0.07021 W/m/K
329.94 K, 46601 kPa, Liquid, transient hot wire	0.07018 W/m/K
329.95 K, 20523 kPa, Liquid, transient hot wire	0.06156 W/m/K
329.97 K, 120 kPa, Gas, hot wire	0.01385 W/m/K
329.97 K, 177 kPa, Liquid, transient hot wire	0.05208 W/m/K
329.97 K, 178 kPa, Liquid, transient hot wire	0.05208 W/m/K
329.99 K, 120 kPa, Gas, hot wire	0.01382 W/m/K
329.99 K, 180 kPa, Liquid, transient hot wire	0.05206 W/m/K
329.99 K, 67709 kPa, Liquid, transient hot wire	0.0759 W/m/K

From the NIST ThermoML archive (doi:10.1021/acs.jced.8b00132)
